Entries after “also recorded” stand apart in the source; their conditions may differ.
Columns and labels:
ASK1 [1] = molecular target: T1, ASK1 (Homo sapiens, UniProt Q99683); assay: ASK1 Alphascreen biochemical assay
T1 sequence (Q99683 1-1374): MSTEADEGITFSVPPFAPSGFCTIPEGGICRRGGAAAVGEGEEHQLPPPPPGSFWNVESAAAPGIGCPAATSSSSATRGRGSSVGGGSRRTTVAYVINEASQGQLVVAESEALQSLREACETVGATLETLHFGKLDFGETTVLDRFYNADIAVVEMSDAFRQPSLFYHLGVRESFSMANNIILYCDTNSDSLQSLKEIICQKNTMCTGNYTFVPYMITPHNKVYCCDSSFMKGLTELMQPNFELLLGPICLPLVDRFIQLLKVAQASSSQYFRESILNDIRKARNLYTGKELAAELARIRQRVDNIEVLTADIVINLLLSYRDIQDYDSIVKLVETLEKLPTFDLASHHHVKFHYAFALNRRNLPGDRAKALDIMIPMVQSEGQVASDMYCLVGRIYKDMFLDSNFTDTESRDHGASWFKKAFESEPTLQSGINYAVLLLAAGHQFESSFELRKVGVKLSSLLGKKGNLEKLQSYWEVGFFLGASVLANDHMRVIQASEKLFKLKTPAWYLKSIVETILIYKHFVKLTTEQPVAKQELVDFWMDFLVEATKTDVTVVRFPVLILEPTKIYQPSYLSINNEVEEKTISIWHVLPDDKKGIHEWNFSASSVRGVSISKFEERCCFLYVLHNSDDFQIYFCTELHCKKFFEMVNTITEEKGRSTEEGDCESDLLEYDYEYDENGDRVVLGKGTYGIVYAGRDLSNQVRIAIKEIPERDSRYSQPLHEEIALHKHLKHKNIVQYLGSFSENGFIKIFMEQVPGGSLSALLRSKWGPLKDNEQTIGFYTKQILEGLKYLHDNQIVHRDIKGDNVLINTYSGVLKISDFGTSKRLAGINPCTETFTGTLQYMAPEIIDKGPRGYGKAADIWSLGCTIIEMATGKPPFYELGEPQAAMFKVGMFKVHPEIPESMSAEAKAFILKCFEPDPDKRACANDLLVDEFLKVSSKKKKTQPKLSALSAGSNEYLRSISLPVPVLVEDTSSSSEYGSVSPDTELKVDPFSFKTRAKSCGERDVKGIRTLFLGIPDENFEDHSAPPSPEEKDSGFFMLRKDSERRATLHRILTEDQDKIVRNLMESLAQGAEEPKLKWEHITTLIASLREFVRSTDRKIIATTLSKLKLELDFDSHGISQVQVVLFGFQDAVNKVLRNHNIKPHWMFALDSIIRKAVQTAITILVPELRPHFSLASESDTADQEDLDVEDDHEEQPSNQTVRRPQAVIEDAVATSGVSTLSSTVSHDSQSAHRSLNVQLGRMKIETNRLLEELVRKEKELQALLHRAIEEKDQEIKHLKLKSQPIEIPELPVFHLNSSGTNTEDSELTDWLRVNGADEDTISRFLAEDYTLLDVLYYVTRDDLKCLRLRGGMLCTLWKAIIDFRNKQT

CYP3A4 = CYP3A4 (Homo sapiens, UniProt P08684); assay: Cytochrome P450 inhibition assay 3A4; format: in vitro ADME
Chain of CYP3A4 (P08684 whole entry): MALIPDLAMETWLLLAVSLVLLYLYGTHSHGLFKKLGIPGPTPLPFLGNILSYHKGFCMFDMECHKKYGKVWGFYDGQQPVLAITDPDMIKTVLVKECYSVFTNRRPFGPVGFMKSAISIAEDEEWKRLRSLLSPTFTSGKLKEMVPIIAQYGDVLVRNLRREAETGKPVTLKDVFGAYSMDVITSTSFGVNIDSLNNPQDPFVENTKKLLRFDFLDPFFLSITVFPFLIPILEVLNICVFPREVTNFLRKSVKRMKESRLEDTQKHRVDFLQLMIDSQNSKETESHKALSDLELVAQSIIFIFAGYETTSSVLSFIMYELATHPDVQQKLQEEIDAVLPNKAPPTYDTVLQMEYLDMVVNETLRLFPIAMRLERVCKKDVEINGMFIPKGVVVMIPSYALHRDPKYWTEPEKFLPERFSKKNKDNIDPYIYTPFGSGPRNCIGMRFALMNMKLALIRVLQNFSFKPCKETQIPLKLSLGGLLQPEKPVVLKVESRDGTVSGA

INS-1e cell line = assay: TNFα-induced phosphorylation of endogenous MKK6 at Ser207, immunoblot; format: cell-based; conditions: rat INS-1e cells
CYP2C9 = CYP2C9 (Homo sapiens, UniProt P11712); assay: Cytochrome P450 inhibition assay 2C9; format: in vitro ADME
Chain of CYP2C9 (P11712 whole entry): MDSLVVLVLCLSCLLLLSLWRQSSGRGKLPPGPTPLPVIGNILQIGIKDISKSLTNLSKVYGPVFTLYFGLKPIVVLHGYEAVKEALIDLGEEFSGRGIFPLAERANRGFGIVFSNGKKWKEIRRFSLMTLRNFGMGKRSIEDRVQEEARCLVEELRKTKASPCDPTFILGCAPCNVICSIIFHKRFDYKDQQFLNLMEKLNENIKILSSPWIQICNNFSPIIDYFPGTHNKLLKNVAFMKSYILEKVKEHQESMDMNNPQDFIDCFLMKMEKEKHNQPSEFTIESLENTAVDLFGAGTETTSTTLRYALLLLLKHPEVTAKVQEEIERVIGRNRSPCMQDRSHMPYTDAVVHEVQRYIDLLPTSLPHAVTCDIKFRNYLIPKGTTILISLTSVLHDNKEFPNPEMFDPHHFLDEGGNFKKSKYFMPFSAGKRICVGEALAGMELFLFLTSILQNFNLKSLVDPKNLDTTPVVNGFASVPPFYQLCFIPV

ASK1 [2] = molecular target: T1, ASK1; assay: Enzyme kinetic study, Lineweaver-Burk plot at six ATP concentrations; format: biochemical; conditions: with or without compound

| Compound | ASK1 inhibitory activity (in words) (ASK1 [1]) | inhibition at 10 µM (CYP3A4) [%] | inhibition at 10 µM (CYP2C9) [%] | also measured |
| --- | --- | --- | --- | --- |
| CN(C)c1cccc(Nc2nccc(NCCOc3ccccc3)n2)c1 [Compound 3] |  |  |  | fold less active as an ASK1 inhibitor compared to 1 (ASK1 [1]; 3 versus 1): approximately 250 fold |
| CC(=O)Nc1cccc(Nc2ncc3ccccc3n2)c1 [Compound 12] | submicromolar inhibitory activities against ASK1 | < 20 | < 20 | fold improvement in potency in comparison to quinazoline 9 (ASK1 [1]; 12 versus 9): > 10 fold; TNFα-induced MKK6 ser207 phosphorylation (INS-1e cell line): protects against TNFα-induced MKK6^ser207 phosphorylation; also recorded: reduction of p-MKK6^ser207; mode of ASK1 inhibition (ASK1 [2]): ATP competitive |
| CC(=O)Nc1cccc(Nc2ncc3cc(-c4cn[nH]c4)ccc3n2)c1 [Compound 23] | submicromolar inhibitory activities against ASK1 | > 85 | > 85 |  |
| CC(C)(C)C(=O)N(c1ccccc1)c1cccc(Nc2ncc3cc(-c4cn[nH]c4)ccc3n2)c1 [Compound 28] | did not show improvement in ASK1 activity |  |  |  |
| Cn1cc(-c2ccc3nc(Nc4cccc(N(C(=O)C(C)(C)C)c5ccccc5)c4)ncc3c2)cn1 [Compound 29] | did not show improvement in ASK1 activity |  |  |  |

Source: PMC5999544 (Bioorganic & medicinal chemistry letters, 2017)
